Measurements published in PMC11191687.

Key:
[1] = as series B (acyl azide from hydrazide, MeCN cosolvent), isolated after prep HPLC; conditions: the molecule shown is the open-chain precursor, aq phosphate buffer (6 M GdmCl) diluted with 2 vol 50% MeCN/water, 4.0 mM, 2 steps
[2] = head-to-tail lactamisation of unprotected peptide acyl azide (from C-terminal hydrazide, 20 equiv NaNO2, pH 3, -15 C, then NaHCO3 to pH ~7), biphasic EtOAc/buffer; conditions: 21-membered ring, aq phosphate buffer (6 M GdmCl, 50 mM NaH2PO4, 1.5 mM EDTA) / EtOAc biphasic, 3.0 mM, 0.25 h, 2 steps
[3] = as series A (acyl azide from hydrazide, biphasic EtOAc/buffer), isolated after prep HPLC; conditions: 21-membered ring, aq phosphate buffer (6 M GdmCl) / EtOAc biphasic, 3.0 mM, 0.25 h, 2 steps
[4] = from C=CC[C@H](NC(=O)[C@H](CC(C)C)NC(=O)[C@H](CC(C)C)N(C)C(=O)[C@@H](NC(=O)[C@H](Cc1ccc(O)c([N+](=O)[O-])c1)NC(=O)[C@H](CC(C)C)N(C)C(=O)[C@@H](N)Cc1c[nH]c2ccccc12)[C@@H](C)O)C(=O)N=[N+]=[N-]
[5] = from C=CC[C@H](NC(=O)[C@H](CC(C)C)N(C)C(=O)[C@@H](NC(=O)[C@H](Cc1ccccc1)NC(=O)[C@H](C)NC(=O)[C@H](CC(C)C)N(C)C(=O)[C@@H](N)Cc1cn(C)c2ccccc12)C(C)C)C(=O)N=[N+]=[N-]
[6] = from CC(C)C[C@H](NC(=O)[C@H](CC(C)C)N(C)C(=O)[C@H](C)NC(=O)[C@H](Cc1ccc(O)c([N+](=O)[O-])c1)NC(=O)[C@H](CC(C)C)N(C)C(=O)[C@@H](N)Cc1c[nH]c2ccccc12)C(=O)N[C@@H](C)C(=O)N=[N+]=[N-]
[7] = from C=CC(C)(C)n1cc(C[C@H](N)C(=O)N(C)[C@@H](CC(C)C)C(=O)N[C@@H](Cc2ccc(O)c([N+](=O)[O-])c2)C(=O)N[C@@H](C)C(=O)N(C)[C@@H](CC(C)C)C(=O)N[C@@H](CC(C)C)C(=O)N[C@@H](Cc2ccccc2)C(=O)N=[N+]=[N-])c2ccccc21
[8] = from C=CC(C)(C)n1cc(C[C@H](N)C(=O)N(C)[C@@H](CC(C)C)C(=O)N[C@@H](Cc2ccc(O)c([N+](=O)[O-])c2)C(=O)N[C@@H](C)C(=O)N(C)[C@@H](CC(C)C)C(=O)N[C@@H](CC(C)C)C(=O)N[C@@H](C/C=C/C)C(=O)N=[N+]=[N-])c2ccccc21

In the case of CC(C)C[C@H](NC(=O)[C@H](Cc1ccc(O)cc1)NC(=O)[C@@H]1CCCN1C(=O)CN)C(=O)N[C@@H](C)C(=O)N=[N+]=[N-] [H-Gly-Pro-Tyr-Leu-Ala-N3], the ring closure, yield over several steps ([1]; 15-membered ring) is reported as 51%.
C=CC[C@@H]1NC(=O)[C@H](CC(C)C)NC(=O)[C@H](CC(C)C)N(C)C(=O)[C@H]([C@@H](C)O)NC(=O)[C@H](Cc2ccc(O)c([N+](=O)[O-])c2)NC(=O)[C@H](CC(C)C)N(C)C(=O)[C@H](Cc2c[nH]c3ccccc23)NC1=O [H-Trp-N-Me-Leu-Tyr(3-NO2)-Thr-N-Me-Leu-Leu-allylGly-N3] gave a ring closure, conversion by HPLC [2, 4] of 78% and a ring closure, yield over several steps [3, 4] of 35%.
For C=CC[C@@H]1NC(=O)[C@H](CC(C)C)N(C)C(=O)[C@H](C(C)C)NC(=O)[C@H](Cc2ccccc2)NC(=O)[C@H](C)NC(=O)[C@H](CC(C)C)N(C)C(=O)[C@H](Cc2cn(C)c3ccccc23)NC1=O [H-Trp(1-Me)-N-Me-Leu-Ala-Phe-Val-N-Me-Leu-allylGly-N3], the ring closure, conversion by HPLC [2, 5] was 75% and the ring closure, yield over several steps [3, 5] was 50%.
Compound CC(C)C[C@@H]1NC(=O)[C@H](CC(C)C)N(C)C(=O)[C@H](C)NC(=O)[C@H](Cc2ccc(O)c([N+](=O)[O-])c2)NC(=O)[C@H](CC(C)C)N(C)C(=O)[C@H](Cc2c[nH]c3ccccc23)NC(=O)[C@H](C)NC1=O [H-Trp-N-Me-Leu-Tyr(3-NO2)-Ala-N-Me-Leu-Leu-Ala-N3] has a ring closure, conversion by HPLC [2, 6] of 87% and a ring closure, yield over several steps [3, 6] of 52%.
Compound CSCC[C@H](NC(=O)[C@@H](NC(=O)[C@H](CC(C)C)NC(=O)CNC(=O)[C@@H]1CCCN1C(=O)[C@@H](NC(=O)CNC(=O)[C@@H](N)Cc1ccccc1)C(C)C)C(C)C)C(=O)N=[N+]=[N-] [H-Phe-Gly-Val-Pro-Gly-Leu-Val-Met-N3] has a ring closure, yield over several steps ([1]; 24-membered ring) of 12%.
Work on CC(C)C[C@H](NC(=O)[C@H](CCCN)NC(=O)[C@@H](NC(=O)[C@@H]1CCCN1C(=O)[C@@H](Cc1ccccc1)NC(=O)[C@H](CC(C)C)NC(=O)[C@H](CCCN)NC(=O)[C@@H](NC(=O)[C@@H]1CCCN1C(=O)[C@H](N)Cc1ccccc1)C(C)C)C(C)C)C(=O)N=[N+]=[N-] [H-D-Phe-Pro-Val-Orn-Leu-D-Phe-Pro-Val-Orn-Leu-N3] yielded a ring closure, yield over several steps ([1]; 30-membered ring) of 63%.
Work on C=CC(C)(C)n1cc(C[C@@H]2NC(=O)[C@H](Cc3ccccc3)NC(=O)[C@H](CC(C)C)NC(=O)[C@H](CC(C)C)N(C)C(=O)[C@H](C)NC(=O)[C@H](Cc3ccc(O)c([N+](=O)[O-])c3)NC(=O)[C@H](CC(C)C)N(C)C2=O)c2ccccc21 yielded a ring closure, conversion by HPLC [2, 7] of 63% and a ring closure, yield over several steps [3, 7] of 22%.
Compound C=CC(C)(C)n1cc(C[C@@H]2NC(=O)[C@H](C/C=C/C)NC(=O)[C@H](CC(C)C)NC(=O)[C@H](CC(C)C)N(C)C(=O)[C@H](C)NC(=O)[C@H](Cc3ccc(O)c([N+](=O)[O-])c3)NC(=O)[C@H](CC(C)C)N(C)C2=O)c2ccccc21 has a ring closure, conversion by HPLC [2, 8] of 84% and a ring closure, yield over several steps [3, 8] of 39%.
For CC(C)C[C@H](NC(=O)[C@H](CCCN)NC(=O)[C@@H](NC(=O)[C@H](Cc1ccc(O)cc1)NC(=O)[C@H](CCC(N)=O)NC(=O)[C@H](CC(N)=O)NC(=O)[C@@H](Cc1ccccc1)NC(=O)[C@H](Cc1ccccc1)NC(=O)[C@@H]1CCCN1C(=O)[C@H](N)Cc1ccccc1)C(C)C)C(=O)N=[N+]=[N-] [H-D-Phe-Pro-Phe-D-Phe-Asn-Gln-Tyr-Val-Orn-Leu-N3], the ring closure, yield over several steps ([1]; 30-membered ring, 0.25 h) was 68%.
CC[C@H](C)[C@H](NC(=O)CNC(=O)[C@H](CO)NC(=O)[C@@H]1CCCN1C(=O)[C@@H](NC(=O)[C@@H]1CCCN1)C(C)C)C(=O)N[C@@H](Cc1ccccc1)C(=O)NCC(=O)N=[N+]=[N-] [H-Pro-Val-Pro-Ser-Gly-Ile-Phe-Gly-N3] showed a ring closure, yield over several steps ([1]; 24-membered ring) of 42%.
CCCCC(C)CCC(=O)N[C@@H](CCN)C(=O)N[C@H](C(=O)N[C@@H](CCN)C(=O)N[C@@H](CCN)C(=O)N[C@@H](CCN)C(=O)N[C@H](CC(C)C)C(=O)N[C@@H](CC(C)C)C(=O)N[C@@H](CCN)C(=O)N[C@@H](CCN)C(=O)N[C@H](C(=O)N=[N+]=[N-])[C@@H](C)O)[C@@H](C)O (some centres unmarked) gave a ring closure, yield over several steps ([1]; 23-membered ring) of 3%.
CC(=O)N[C@@H](Cc1ccccc1)C(=O)N[C@@H](CCCN)C(=O)N1CCC[C@H]1C(=O)N[C@H](Cc1ccc(O)cc1)C(=O)N[C@@H](Cc1c[nH]c2ccccc12)C(=O)N[C@@H](CCCNC(=N)N)C(=O)N=[N+]=[N-] [Ac-Phe-Orn(cyclises via side chain)-Pro-D-Tyr-Trp-Arg-N3] showed a ring closure, yield over several steps ([1]; 18-membered ring) of 62%.
